Source: patent publication US20240059682A1, “THYROID HORMONE RECEPTOR BETA AGONIST COMPOUNDS” (Terns Pharmaceuticals, Inc., priority 2021, published 2024)
Like-named read-outs stand apart in the source and are kept apart here.

Tests used:
[1] = target: THR-β/RXR-α (Homo sapiens (Human), UniProt P10828); experiment: THR/RXR heterodimer assay (THR-β/RXR-α); assay type: biochemical; details: RXR heterodimer assay; for THRß-Selectivity: normalized to T3 activity
[2] = Pharmacokinetics study in rats; assay type: in vivo, male Sprague-Dawley (SD) rats; details: male SD rats; for AUC(0-inf) / half-life / clearance / Vd / bioavailability / AUC(0-t) / Cmax: Sprague-Dawley, rat, plasma; for clearance: mean±SD, read-out: plasma clearance (CL); for Vd: read-out: volume of distribution (Vdss)
Procedure: Examples 12 and 14 were administered via a 30-minute intravenous (IV) infusion at approximately 1 mg/kg and orally at approximately 3 mg/kg to male Sprague-Dawley (SD) rats. The concentrations of Examples 12 and 14 in rat plasma was determined with an LC-MS/MS method.

[3] = Tissue distribution in rats; assay type: in vivo, male Sprague-Dawley (SD) rats; details: 2 hours post-dose, male SD rats; for Kp at 2 h / concentration at 2 h: Sprague-Dawley, rat
Procedure: Examples 12 and 14 were administered via a 30-minute intravenous (IV) infusion at approximately 2 mg/kg to jugular vein cannulated male Sprague-Dawley (SD) rats. All animals were euthanized by CO2 inhalation at 2 hours post-dose. The concentrations of Examples 12 and 14 in rat plasma and liver, heart and kidney tissues were determined with an LC-MS/MS method.

[4] = target: TR beta-LBD (Homo sapiens (Human), UniProt P10828); details: TR-FRET; derived from T3-selectivity normalized data
[5] = target: THR-α/RXR-α (Homo sapiens (Human), UniProt P10827); experiment: THR/RXR heterodimer assay (THR-α/RXR-α); assay type: biochemical; details: RXR heterodimer assay; read-out: EC50 THRα-het
THR-α/RXR-α, sequence (P10827 other isoform, or with tags, fused parts or gaps): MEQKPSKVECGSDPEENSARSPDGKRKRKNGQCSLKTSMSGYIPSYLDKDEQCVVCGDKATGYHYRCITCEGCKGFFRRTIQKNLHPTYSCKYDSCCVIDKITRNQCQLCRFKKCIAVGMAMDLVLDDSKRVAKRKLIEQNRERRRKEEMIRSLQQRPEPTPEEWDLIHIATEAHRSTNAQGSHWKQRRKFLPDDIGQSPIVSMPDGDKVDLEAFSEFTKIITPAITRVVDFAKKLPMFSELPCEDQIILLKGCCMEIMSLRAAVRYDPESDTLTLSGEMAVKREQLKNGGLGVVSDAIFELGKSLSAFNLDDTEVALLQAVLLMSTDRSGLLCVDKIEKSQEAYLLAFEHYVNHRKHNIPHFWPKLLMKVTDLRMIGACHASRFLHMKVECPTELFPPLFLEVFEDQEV
THR-α/RXR-α, sequence (P19793 225-462 partner): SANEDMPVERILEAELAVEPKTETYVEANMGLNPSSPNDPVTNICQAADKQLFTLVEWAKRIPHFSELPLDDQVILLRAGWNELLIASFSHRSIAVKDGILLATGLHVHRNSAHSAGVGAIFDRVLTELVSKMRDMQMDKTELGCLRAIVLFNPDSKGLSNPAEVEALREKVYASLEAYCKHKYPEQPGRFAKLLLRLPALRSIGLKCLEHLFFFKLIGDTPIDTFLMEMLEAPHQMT
THR-α/RXR-α, sequence (Q15596 679-703 partner): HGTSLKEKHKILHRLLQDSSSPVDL

THR-β/RXR-α, sequence (P10828 202-461): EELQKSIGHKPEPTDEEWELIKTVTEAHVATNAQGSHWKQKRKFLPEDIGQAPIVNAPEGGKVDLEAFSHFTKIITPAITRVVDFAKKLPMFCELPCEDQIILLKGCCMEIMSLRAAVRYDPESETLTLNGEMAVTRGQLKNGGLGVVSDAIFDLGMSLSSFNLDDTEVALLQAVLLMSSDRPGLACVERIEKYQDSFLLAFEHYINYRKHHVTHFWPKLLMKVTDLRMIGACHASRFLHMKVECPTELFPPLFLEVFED
THR-β/RXR-α, sequence (P19793 225-462 partner): as the sequence (P19793 225-462 partner) above
TR beta-LBD, sequence (P10828 whole entry, looked up, the tested form may be a part): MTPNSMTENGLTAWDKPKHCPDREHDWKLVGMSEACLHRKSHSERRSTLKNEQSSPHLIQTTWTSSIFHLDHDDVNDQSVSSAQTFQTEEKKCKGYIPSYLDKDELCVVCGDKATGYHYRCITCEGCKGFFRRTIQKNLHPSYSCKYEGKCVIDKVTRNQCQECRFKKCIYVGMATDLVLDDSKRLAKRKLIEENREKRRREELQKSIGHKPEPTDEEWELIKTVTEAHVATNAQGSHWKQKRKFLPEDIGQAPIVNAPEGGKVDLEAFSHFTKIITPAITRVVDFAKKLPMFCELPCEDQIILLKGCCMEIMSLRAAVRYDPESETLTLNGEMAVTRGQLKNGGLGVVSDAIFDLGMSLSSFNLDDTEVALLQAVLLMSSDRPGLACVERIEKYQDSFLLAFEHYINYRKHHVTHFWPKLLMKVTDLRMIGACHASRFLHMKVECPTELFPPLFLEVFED

COc1nc2ccc(Oc3c(Cl)cc(-n4nc(C#N)c(=O)[nH]c4=O)cc3Cl)cc2n1C(C)(C)C [Example 15, 2-(4-((1-(tert-butyl)-2-methoxy-1H-benzo[d]imidazol-6-yl)oxy)-3,5-dichlorophenyl)-3,5-dioxo-2,3,4,5-tetrahydro-1,2,4-triazine-6-carbonitrile] gave a THRß-Selectivity [1] of 10.3.
CC1(n2c(=O)[nH]c3ccc(Oc4c(Cl)cc(-n5nc(C#N)c(=O)[nH]c5=O)cc4Cl)cc32)CC1 [Example 14, 2-(3,5-dichloro-4-((3-(1-methylcyclopropyl)-2-oxo-2,3-dihydro-1H-benzo[d]imidazol-5-yl)oxy)phenyl)-3,5-dioxo-2,3,4,5-tetrahydro-1,2,4-triazine-6-carbonitrile] showed an AUC(0-inf) ([2]; IV infusion 1.09 mg/kg) of 550 ± 19.6 ng·h/mL, a half-life ([2]; IV infusion 1.09 mg/kg) of 1.51 ± 0.54 h and a clearance ([2]; IV infusion 1.09 mg/kg) of 30.3 ± 1.07 mL/min/kg. It also gave a Vd ([2]; IV infusion 1.09 mg/kg) of 1.28 ± 0.387 L/kg, a bioavailability ([2]; oral 3.18 mg/kg vs IV 1.09 mg/kg) of 11.5% and an AUC(0-inf) ([2]; oral 3.18 mg/kg) of 190 ± 28.7 ng·h/mL. The AUC(0-t) ([2]; oral 3.18 mg/kg) was 178 ± 25.5 ng·h/mL, the Cmax ([2]; oral 3.18 mg/kg) was 31 ± 5.92 ng/mL and the “time post-dose at which Cmax was reached” value ([2]; oral 3.18 mg/kg) was 4.0 ± 2.0 h. For the same compound, the “tissue concentration in heart” value ([3]; IV infusion 2.16 mg/kg) was “below the limit of detection”, the Kp at 2 h ([3]; kidney/plasma, IV infusion 2.16 mg/kg, read-out: tissue/plasma ratio kidney/plasma) was 6.25 ± 2.13 and the concentration at 2 h ([3]; kidney, IV infusion 2.16 mg/kg, read-out: tissue concentration in kidney) was 94 ± 23.5 ng/g. It also gave a Kp at 2 h ([3]; liver/plasma, IV infusion 2.16 mg/kg, read-out: tissue/plasma ratio liver/plasma) of 29 ± 24.9, a concentration at 2 h ([3]; liver, IV infusion 2.16 mg/kg, read-out: tissue concentration in liver) of 413 ± 303 ng/g and a concentration at 2 h ([3]; plasma, IV infusion 2.16 mg/kg, read-out: plasma concentration) of 15.5 ± 3.7 ng/mL. It also gave a THRß-Selectivity [1] of 12.0.
In the case of CC(C)(C)n1c(=O)[nH]c2ccc(Oc3c(Cl)cc(NC(=O)c4noc(=O)[nH]4)cc3Cl)cc21 [Example 10, N-(4-((3-(tert-butyl)-2-oxo-2,3-dihydro-1H-benzo[d]imidazol-5-yl)oxy)-3,5-dichlorophenyl)-5-oxo-4,5-dihydro-1,2,4-oxadiazole-3-carboxamide], the THRß-Selectivity [1] is reported as 7.7.
With COc1nc2ccc(Oc3c(Cl)cc(NC(=O)c4noc(=O)[nH]4)cc3Cl)cc2n1C1(C)CC1 [Example 11, N-(3,5-dichloro-4-((2-methoxy-1-(1-methylcyclopropyl)-1H-benzo[d]imidazol-6-yl)oxy)phenyl)-5-oxo-4,5-dihydro-1,2,4-oxadiazole-3-carboxamide] the THRß-Selectivity [1] was 17.7.
Cn1c(=O)[nH]c2ccc(Oc3c(Cl)cc(NC(=O)c4noc(=O)[nH]4)cc3Cl)cc21 [Example 19, N-(3,5-dichloro-4-((3-methyl-2-oxo-2,3-dihydro-1H-benzo[d]imidazol-5-yl)oxy)phenyl)-5-oxo-4,5-dihydro-1,2,4-oxadiazole-3-carboxamide] gave a THRß-Selectivity [4] of 14.1 and a THRß-Selectivity [1] of 5.3.
For CC(C)(C)n1c(=O)[nH]c2ccc(Oc3c(Cl)cc(-n4nc(C#N)c(=O)[nH]c4=O)cc3Cl)cc21 [Example 16, 2-(4-((3-(tert-butyl)-2-oxo-2,3-dihydro-1H-benzo[d]imidazol-5-yl)oxy)-3,5-dichlorophenyl)-3,5-dioxo-2,3,4,5-tetrahydro-1,2,4-triazine-6-carbonitrile], the THRß-Selectivity [1] was 9.8.
Work on COc1nc2ccc(Oc3c(Cl)cc(NC(=O)c4noc(=O)[nH]4)cc3Cl)cc2n1C1(C(F)(F)F)CC1 [Example 24] yielded an EC50 [5] of 3.23 µM, a THRß-Selectivity [1] of 6.7 and an EC50 ([1]; read-out: EC50 THRß-het) of 0.48 µM.
Work on O=C(Nc1cc(Cl)c(Oc2ccc3[nH]c(=O)n(C4CC4)c3c2)c(Cl)c1)c1noc(=O)[nH]1 [Example 1, N-(3,5-dichloro-4-((3-cyclopropyl-2-oxo-2,3-dihydro-1H-benzo[d]imidazol-5-yl)oxy)phenyl)-5-oxo-4,5-dihydro-1,2,4-oxadiazole-3-carboxamide] yielded a THRß-Selectivity [1] of 5.1.
N#Cc1nn(-c2cc(Cl)c(Oc3ccc4[nH]c(=O)n(C5CC5)c4c3)c(Cl)c2)c(=O)[nH]c1=O [Example 8, 2-(3,5-dichloro-4-((3-cyclopropyl-2-oxo-2,3-dihydro-1H-benzo[d]imidazol-5-yl)oxy)phenyl)-3,5-dioxo-2,3,4,5-tetrahydro-1,2,4-triazine-6-carbonitrile] gave a THRß-Selectivity [1] of 7.2.
Compound COc1nc2ccc(Oc3c(Cl)cc(-n4nc(C#N)c(=O)[nH]c4=O)cc3Cl)cc2n1C1(C)CC1 [Example 12, 2-(3,5-dichloro-4-((2-methoxy-1-(1-methylcyclopropyl)-1H-benzo[d]imidazol-6-yl)oxy)phenyl)-3,5-dioxo-2,3,4,5-tetrahydro-1,2,4-triazine-6-carbonitrile] has an AUC(0-inf) ([2]; IV infusion 1.09 mg/kg) of 3780 ± 704 ng·h/mL, a half-life ([2]; IV infusion 1.09 mg/kg) of 2.67 ± 0.53 h and a clearance ([2]; IV infusion 1.09 mg/kg) of 4.51 ± 0.883 mL/min/kg. The Vd ([2]; IV infusion 1.09 mg/kg) was 0.638 ± 0.218 L/kg, the bioavailability ([2]; oral 3.0 mg/kg vs IV 1.09 mg/kg) was 95.2% and the AUC(0-inf) ([2]; oral 3.0 mg/kg) was 10800 ± 5630 ng·h/mL. The AUC(0-t) ([2]; oral 3.0 mg/kg) was 10800 ± 5630 ng·h/mL, the Cmax ([2]; oral 3.0 mg/kg) was 2020 ± 793 ng/mL and the “time post-dose at which Cmax was reached” value ([2]; oral 3.0 mg/kg) was 3.33 ± 1.15 h. It also gave a Kp at 2 h ([3]; heart/plasma, IV infusion 2.0 mg/kg, read-out: tissue/plasma ratio heart/plasma) of 1.65 ± 2.33, a concentration at 2 h ([3]; heart, IV infusion 2.0 mg/kg, read-out: tissue concentration in heart) of 995 ± 1430 ng/g and a Kp at 2 h ([3]; kidney/plasma, IV infusion 2.0 mg/kg, read-out: tissue/plasma ratio kidney/plasma) of 1.01 ± 0.212. It also gave a concentration at 2 h ([3]; kidney, IV infusion 2.0 mg/kg, read-out: tissue concentration in kidney) of 558 ± 103 ng/g, a Kp at 2 h ([3]; liver/plasma, IV infusion 2.0 mg/kg, read-out: tissue/plasma ratio liver/plasma) of 5.62 ± 1.09 and a concentration at 2 h ([3]; liver, IV infusion 2.0 mg/kg, mean±SD, read-out: tissue concentration in liver) of 3040 ± 350 ng/g. It also gave a concentration at 2 h ([3]; plasma, IV infusion 2.0 mg/kg, read-out: plasma concentration) of 569 ± 145 ng/mL and a THRß-Selectivity [1] of 18.7.
Compound COc1nc2ccc(Oc3c(Cl)cc(NC(=O)c4noc(=O)[nH]4)cc3Cl)cc2n1C [Example 3, N-(3,5-dichloro-4-((2-methoxy-1-methyl-1H-benzo[d]imidazol-6-yl)oxy)phenyl)-5-oxo-4,5-dihydro-1,2,4-oxadiazole-3-carboxamide] has a THRß-Selectivity [1] of 9.7.
Work on O=C(Nc1cc(Cl)c(Oc2ccc3[nH]c(=O)n(C4(C(F)F)CC4)c3c2)c(Cl)c1)c1noc(=O)[nH]1 [Example 17, N-(3,5-dichloro-4-((3-(1-(difluoromethyl)cyclopropyl)-2-oxo-2,3-dihydro-1H-benzo[d]imidazol-5-yl)oxy)phenyl)-5-oxo-4,5-dihydro-1,2,4-oxadiazole-3-carboxamide] yielded a THRß-Selectivity [1] of 10.1.
CC(C)n1c(=O)[nH]c2ccc(Oc3c(Cl)cc(-n4nc(C#N)c(=O)[nH]c4=O)cc3Cl)cc21 [Example 5, 2-(3,5-dichloro-4-((3-isopropyl-2-oxo-2,3-dihydro-1H-benzo[d]imidazol-5-yl)oxy)phenyl)-3,5-dioxo-2,3,4,5-tetrahydro-1,2,4-triazine-6-carbonitrile] gave a THRß-Selectivity [1] of 5.8.
In the case of COc1nc2ccc(Oc3c(Cl)cc(NC(=O)c4noc(=O)[nH]4)cc3Cl)cc2n1C(C)C [Example 6, N-(3,5-dichloro-4-((1-isopropyl-2-methoxy-1H-benzo[d]imidazol-6-yl)oxy)phenyl)-5-oxo-4,5-dihydro-1,2,4-oxadiazole-3-carboxamide], the THRß-Selectivity [1] is reported as 16.9.
Work on COc1nc2ccc(Oc3c(Cl)cc(NC(=O)c4noc(=O)[nH]4)cc3Cl)cc2n1C1CC1 [Example 7, N-(3,5-dichloro-4-((1-cyclopropyl-2-methoxy-1H-benzo[d]imidazol-6-yl)oxy)phenyl)-5-oxo-4,5-dihydro-1,2,4-oxadiazole-3-carboxamide] yielded a THRß-Selectivity [1] of 21.2.
COc1nc2ccc(Oc3c(Cl)cc(-n4nc(C#N)c(=O)[nH]c4=O)cc3Cl)cc2n1C1CC1 [Example 2, 2-(3,5-dichloro-4-((1-cyclopropyl-2-methoxy-1H-benzo[d]imidazol-6-yl)oxy)phenyl)-3,5-dioxo-2,3,4,5-tetrahydro-1,2,4-triazine-6-carbonitrile] showed a THRß-Selectivity [1] of 16.9.
N#Cc1nn(-c2cc(Cl)c(Oc3ccc4[nH]c(=O)n(C5(C(F)F)CC5)c4c3)c(Cl)c2)c(=O)[nH]c1=O [Example 18, 2-(3,5-dichloro-4-((3-(1-(difluoromethyl)cyclopropyl)-2-oxo-2,3-dihydro-1H-benzo[d]imidazol-5-yl)oxy)phenyl)-3,5-dioxo-2,3,4,5-tetrahydro-1,2,4-triazine-6-carbonitrile] gave a THRß-Selectivity [1] of 8.2.
CC1(n2c(=O)[nH]c3ccc(Oc4c(Cl)cc(NC(=O)c5noc(=O)[nH]5)cc4Cl)cc32)CC1 [Example 13, N-(3,5-dichloro-4-((3-(1-methylcyclopropyl)-2-oxo-2,3-dihydro-1H-benzo[d]imidazol-5-yl)oxy)phenyl)-5-oxo-4,5-dihydro-1,2,4-oxadiazole-3-carboxamide] showed a THRß-Selectivity [1] of 11.0.
